The experiment has as its system healthy subjects. Briefly: CANTAB global composite score. In kind it is in vivo, human. Conditions: 10 mg vs placebo, Day 7. How it is done:
The following list of outcome measures are non-exhaustive. • a. The short-term change from Baseline (Day −1 [Visit 2]) to Day 7 (Visit 5) in cognitive measures of attention, spatial and working memory and executive function was measured by a composite score of the CANTAB Panel (Spatial Working Memory [SWM], Rapid Visual Information Processing [RVP], Paired Associates Learning [PAL]). • b. The short-term change from Baseline (Day −1 [Visit 2]) to Day 7 (Visit 5) in Social Cognition Panel scales (Pictorial Empathy Test [PET], Reading the Mind in the Eyes Test [RMET], Toronto Empathy Questionnaire [TEQ], Social Value Orientation [SVO], Scale of Social Responsibility [SSR]). • c. The change from Baseline (Day −1 [Visit 2]) to Day 28 (Visit 6) in cognitive measures of attention, spatial and working memory and executive function as measured by a composite score of the CANTAB Panel (SWM, RVP, PAL). • d. […] Dose-related differences between cognitive effects of psilocybin at Baseline (Day −1 [Visit 2]), Day 7 (Visit 5) and Day 28 (Visit 6), as measured by a composite score of the CANTAB Panel (SWM, RVP, PAL). • f. Dose-related differences between psychological effects of psilocybin at Baseline (Day −1 [Visit 2]), Day 7 (Visit 5) and Day 84 (Visit 7), as measured by Social Cognition Panel scales (PET, RMET, TEQ, SVO, SSR). • g. […]

Regarding `CN(C)CCc1c[nH]c2cccc(OP(=O)(O)O)c12` [psilocybin], the “CANTAB global composite score, effect size” value was determined as 0.53.
